Experimental findings from ChEMBL document CHEMBL1124557, “Pentadienyl carboxamide derivatives as antagonists of platelet-activating factor” (J Med Chem, 1989) are described below.

The test system of assay [1] is Cavia porcellus. Kind of assay: Ability to prevent PAF-induced bronchoconstriction in guinea pig when administered at a dose of 1 mg/kg intravenously. The class given is functional. Conditions: route intravenous.
The target in assay [2] is Platelet-activating factor receptor (Cavia porcellus) (UniProt P21556). Kind of assay: Ability to prevent PAF-induced bronchoconstriction in guinea pig when administered intravenously. The class given is functional.
Platelet-activating factor receptor (Cavia porcellus), sequence (P21556 whole entry): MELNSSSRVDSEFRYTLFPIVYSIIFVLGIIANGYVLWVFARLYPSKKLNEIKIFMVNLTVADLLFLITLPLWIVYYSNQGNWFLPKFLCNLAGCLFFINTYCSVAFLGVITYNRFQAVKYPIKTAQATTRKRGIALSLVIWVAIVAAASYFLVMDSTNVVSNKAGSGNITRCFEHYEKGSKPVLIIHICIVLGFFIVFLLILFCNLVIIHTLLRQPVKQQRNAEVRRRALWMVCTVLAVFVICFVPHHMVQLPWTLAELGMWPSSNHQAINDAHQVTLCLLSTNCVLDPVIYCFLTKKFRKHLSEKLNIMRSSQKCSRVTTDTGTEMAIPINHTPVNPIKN
For assay [3] the target is unchanged. Kind of assay: Ability to prevent PAF-induced bronchoconstriction in guinea pig 2 hr after administration (50 mg/kg perorally). The class given is functional, organism-based.
Assay [4] deals with Cavia porcellus. Put plainly: Inhibition of PAF-induced bronchoconstriction in guinea pig 2 hr after p.o. administration. Conditions: po, read-out: ID50 (the source's name). The class given is functional.
The subject of assay [5] is Cavia porcellus. Kind of assay: Ability to prevent PAF-induced bronchoconstriction in guinea pig 6 hr following 50 mg/kg p.o. administration. The class given is functional. As to conditions: route oral.

As to `COc1ccc(/C(=C\C=C\C(=O)N[C@H](C)CCCc2cccnc2)C2CCCCC2)cc1`, in the assay with Cavia porcellus [1], the inhibition in vivo (in general, the change of the read-out against control, counted positive when it falls) at 1 mg/kg is 18%.

With `COc1cccc(C(=C/C=C/C(=O)NCCCCc2cccnc2)c2cccc(OC)c2)c1`, the ID50 in assay [2] stood at 0.36 mg/kg. The inhibition (usually the drop in the measured response relative to a control, in per cent) in assay [3] was 31%. For the same compound, in the assay with Cavia porcellus [1], the inhibition in vivo at 1 mg/kg was found to be 69%. Also, the ED50 in the assay on Cavia porcellus [4] is 80 mg/kg.

As for `COc1ccc(C(=C/C=C/C(=O)NC(C)(C)CCCc2cccnc2)c2ccc(OC)cc2)cc1`, the ID50 in assay [2] came out at 0.27 mg/kg. Further, the inhibition in assay [3] came out at 54%. Moreover, the inhibition in vivo at 1 mg/kg with Cavia porcellus [1] was determined as 97%. For the same compound, the ED50 in the assay with Cavia porcellus [4] turned out to be 55 mg/kg.

As to `COc1cccc(C(=C/C=C/C(=O)N[C@H](C)CCCc2cccnc2)c2cccc(OC)c2)c1`, the ID50 in assay [2] is 0.21 mg/kg. The inhibition in assay [3] was 86%. Also, the inhibition in vivo at 50 mg/kg with Cavia porcellus [5] was 12%. Further, in the assay with Cavia porcellus [1], the inhibition in vivo at 1 mg/kg was 88%. Also, in the assay on Cavia porcellus [4], the ED50 was 29 mg/kg.

`COc1cccc(C(=C/C=C/C(=O)N[C@@H](C)CCCc2cccnc2)c2cccc(OC)c2)c1` had an inhibition in assay [3] of 10%. The inhibition in vivo at 1 mg/kg in the assay with Cavia porcellus [1] came out at 36%.

As for `COc1ccc(C(=C/C=C/C(=O)NC(C)CCCc2cccnc2C)c2ccc(OC)cc2)cc1` (stereo not given), the ID50 in assay [2] is 1.1 mg/kg. The inhibition in vivo at 1 mg/kg with Cavia porcellus [1] is 47%.

Consider `COc1ccc(C(=C/C=C/C(=O)N[C@@H](CCCc2cccnc2)C2CCCC2)c2ccc(OC)cc2)cc1`, for which the inhibition in vivo at 1 mg/kg in the assay on Cavia porcellus [1] turned out to be 19%.

As for `COc1ccc(C(=C/C=C/C(=O)N[C@@H](C)CCCc2cccnc2)c2ccc(OC)cc2)cc1`, the ID50 in assay [2] came out at 0.84 mg/kg. For the same compound, the inhibition in assay [3] worked out at 90%. Moreover, the inhibition in vivo at 50 mg/kg with Cavia porcellus [5] worked out at 56%. The inhibition in vivo at 1 mg/kg in the assay with Cavia porcellus [1] amounted to 59%. Also, the ED50 in the assay on Cavia porcellus [4] was 29 mg/kg.

Turning to `COc1ccc(C(=C/C=C/C(=O)NCCCOc2cccnc2)c2ccc(OC)cc2)cc1`, the inhibition in vivo at 1 mg/kg in the assay with Cavia porcellus [1] stood at 43%.

In assay [2], `COc1ccc(C(=C/C=C/C(=O)NCCCCc2cccnc2)c2ccc(OC)c(OC)c2)cc1OC` yielded an ID50 of 0.54 mg/kg. The compound also gave an inhibition in assay [3] of 71%. Also, the inhibition in vivo at 50 mg/kg in the assay on Cavia porcellus [5] was found to be 17%. Moreover, the inhibition in vivo at 1 mg/kg in the assay on Cavia porcellus [1] turned out to be 78%. Moreover, the ED50 in the assay with Cavia porcellus [4] was found to be 27 mg/kg.

In turn, `CCC/C(=C\C=C\C(=O)N[C@H](C)CCCc1cccnc1)c1ccc(OC)cc1` yielded an ID50 in assay [2] of 0.52 mg/kg. The inhibition in assay [3] was 9%. In addition, the inhibition in vivo at 1 mg/kg with Cavia porcellus [1] is 86%.

Compound `COc1cccc(/C(=C\C=C\C(=O)NCCCCc2cccnc2)c2cccc(F)c2)c1` came in with an ID50 in assay [2] of 0.46 mg/kg. In addition, the inhibition in assay [3] was 25%. In the assay on Cavia porcellus [1], the inhibition in vivo at 1 mg/kg turned out to be 88%.

As for `CCCC[C@H](CCCc1cccnc1)NC(=O)/C=C/C=C(c1ccc(OC)cc1)c1ccc(OC)cc1`, the inhibition in vivo at 1 mg/kg in the assay on Cavia porcellus [1] was 42%.

For the compound `COc1ccccc1C(=C/C=C/C(=O)NCCCCc1cccnc1)c1ccccc1OC`, the inhibition in vivo at 1 mg/kg in the assay on Cavia porcellus [1] worked out at 40%.

On to `O=C(/C=C/C=C(c1cccc(Cl)c1)c1cccc(Cl)c1)NCCCCc1cccnc1`, for which the ID50 in assay [2] was 0.47 mg/kg. In addition, the inhibition in assay [3] came to 23%. Moreover, the inhibition in vivo at 1 mg/kg in the assay on Cavia porcellus [1] was 76%.

As to `COc1ccc(/C(=C/C=C/C(=O)N[C@H](C)CCCc2cccnc2)c2ccccc2)cc1`, the ID50 in assay [2] amounted to 0.16 mg/kg. In assay [3], the inhibition amounted to 95%. Besides, the inhibition in vivo at 50 mg/kg in the assay on Cavia porcellus [5] was 53%. Moreover, the inhibition in vivo at 1 mg/kg in the assay on Cavia porcellus [1] is 89%.

In the case of `C[C@@H](CCCc1cccnc1)NC(=O)/C=C/C=C(c1ccc(F)cc1)c1ccc(F)cc1`, the inhibition in vivo at 1 mg/kg in the assay with Cavia porcellus [1] turned out to be 21%.

The compound `C[C@@H](CCCc1cccnc1)NC(=O)/C=C/C=C(c1cccc(F)c1)c1cccc(F)c1` came in with an inhibition in assay [3] of 46%. In addition, in the assay on Cavia porcellus [1], the inhibition in vivo at 1 mg/kg came out at 34%.

As for `COc1ccc(C(=C/C=C/C(=O)NCCOCc2cccnc2)c2ccc(OC)cc2)cc1`, in the assay on Cavia porcellus [1], the inhibition in vivo at 1 mg/kg was 48%.

For `COc1ccc(/C=C/C=C/C(=O)N[C@H](C)CCCc2cccnc2)cc1`, in the assay on Cavia porcellus [1], the inhibition in vivo at 1 mg/kg was -17%.

Take `COc1ccc(C(=C/C=C/C(=O)N[C@@H](CCCc2cccnc2)C2CC2)c2ccc(OC)cc2)cc1`: in assay [2], the ID50 was 0.2 mg/kg. Also, in assay [3], the inhibition worked out at 99%. Also, the inhibition in vivo at 50 mg/kg in the assay on Cavia porcellus [5] worked out at 82%. In addition, the inhibition in vivo at 1 mg/kg with Cavia porcellus [1] was 98%. For the same compound, the ED50 in the assay on Cavia porcellus [4] is 6 mg/kg.

On to `C[C@H](CCCc1cccnc1)NC(=O)/C=C/C=C(c1ccc(F)cc1)c1ccc(F)cc1`, for which the ID50 in assay [2] is 0.31 mg/kg. Besides, the inhibition in assay [3] stood at 53%. The inhibition in vivo at 1 mg/kg with Cavia porcellus [1] was determined as 70%.

`COc1ccc(C(=C/C=C/C(=O)N[C@@H](CCCc2cccnc2)C(C)C)c2ccc(OC)cc2)cc1`: in assay [2], the ID50 came to 0.43 mg/kg. In assay [3], this compound registered an inhibition of 57%. For the same compound, the inhibition in vivo at 1 mg/kg in the assay with Cavia porcellus [1] came to 87%. The ED50 in the assay with Cavia porcellus [4] amounted to 26 mg/kg.

On to `CC[C@@H](CCCc1cccnc1)NC(=O)/C=C/C=C(c1ccc(OC)cc1)c1ccc(OC)cc1`, for which the inhibition in vivo at 1 mg/kg with Cavia porcellus [1] turned out to be 44%.

Regarding `C[C@H](CCCc1cccnc1)NC(=O)/C=C/C=C(c1cccc(F)c1)c1cccc(F)c1`, the ID50 in assay [2] came to 0.22 mg/kg. The same compound gave an inhibition in assay [3] of 91%. In addition, in the assay on Cavia porcellus [5], the inhibition in vivo at 50 mg/kg turned out to be 87%. Moreover, the inhibition in vivo at 1 mg/kg with Cavia porcellus [1] came out at 73%. Further, the ED50 with Cavia porcellus [4] stood at 37 mg/kg.

Take `Cc1ccc(C(=C/C=C/C(=O)N[C@H](C)CCCc2cccnc2)c2ccc(C)cc2)cc1`: the ID50 in assay [2] turned out to be 0.3 mg/kg. The same compound gave an inhibition in assay [3] of 91%. Besides, the inhibition in vivo at 50 mg/kg in the assay on Cavia porcellus [5] amounted to 14%. Also, the inhibition in vivo at 1 mg/kg in the assay on Cavia porcellus [1] was found to be 97%. Besides, the ED50 with Cavia porcellus [4] is 18 mg/kg.

`CCCCC/C(=C/C=C/C(=O)N[C@H](C)CCCc1cccnc1)c1ccc(OC)cc1` came in with an ID50 in assay [2] of 0.78 mg/kg. This compound had an inhibition in assay [3] of 13%. In the assay with Cavia porcellus [1], the inhibition in vivo at 1 mg/kg is 57%.

As to `CCC[C@H](CCCc1cccnc1)NC(=O)/C=C/C=C(c1ccc(OC)cc1)c1ccc(OC)cc1`, the inhibition in vivo at 1 mg/kg in the assay with Cavia porcellus [1] was determined as 24%.

As for `O=C(/C=C/C=C(c1cccc([N+](=O)[O-])c1)c1cccc([N+](=O)[O-])c1)NCCCCc1cccnc1`, in assay [2], the ID50 is 0.26 mg/kg. In the assay on Cavia porcellus [1], the inhibition in vivo at 1 mg/kg came out at 78%.

On to `COc1ccc(C(=C/C=C/C(=O)Nc2ccc(Cc3cccnc3)cc2)c2ccc(OC)cc2)cc1`, for which the inhibition in vivo at 1 mg/kg in the assay on Cavia porcellus [1] was found to be 3%.

`COc1cccc(/C(=C/C=C/C(=O)NCCCCc2cccnc2)c2cccc(F)c2)c1` registered an ID50 in assay [2] of 0.25 mg/kg. Moreover, in assay [3], the inhibition was 1%. The inhibition in vivo at 1 mg/kg in the assay on Cavia porcellus [1] came to 90%.

In assay [2], `O=C(/C=C/C=C(c1ccc(Cl)cc1)c1ccc(Cl)cc1)NCCCCc1cccnc1` had an ID50 of 0.18 mg/kg. Moreover, the inhibition in assay [3] was determined as 54%. The inhibition in vivo at 1 mg/kg in the assay on Cavia porcellus [1] stood at 95%. For the same compound, the ED50 in the assay on Cavia porcellus [4] was determined as 50 mg/kg.

`COc1ccc(/C(C)=C/C=C/C(=O)N[C@H](C)CCCc2cccnc2)cc1`: the inhibition in vivo at 1 mg/kg with Cavia porcellus [1] amounted to 42%.

As for `CCCCCC(=C/C=C/C(=O)N[C@H](C)CCCc1cccnc1)CCCCC`, the ID50 in assay [2] was 0.64 mg/kg. In assay [3], the inhibition came to 4%. Moreover, the inhibition in vivo at 1 mg/kg in the assay on Cavia porcellus [1] was 78%.

Compound `COc1ccc(/C(=C\C=C\C(=O)N[C@H](C)CCCc2cccnc2)c2ccccc2)cc1` displayed an ID50 in assay [2] of 0.5 mg/kg. Also, in assay [3], the inhibition was 0%. Also, the inhibition in vivo at 1 mg/kg in the assay on Cavia porcellus [1] worked out at 74%.

In the case of `COc1ccc(C(=C/C=C/C(=O)NC(C)CCCc2ccc(C)nc2)c2ccc(OC)cc2)cc1` (stereo not given), in the assay with Cavia porcellus [1], the inhibition in vivo at 1 mg/kg came out at 5%.
